# Assays:
# Human lymphocytes = test: Immunosuppressive activity, 3H-thymidine incorporation in concanavalin A activated lymphocytes; format: cell-based; settings: Lymphocyte, 72 hours, [3H]-TdR, read-out: Human lymphocytes ED50
# Text: One of the most important parameters of specific cellular immunity is proliferative response of lymphocytes to antigens or polyclonal mitogens. The majority of normal mammalian peripheral lymphocytes comprise resting cells. Antigens or nonspecific polyclonal mitogens have the capacity to activate lymphoid cells and this is accompanied by dramatic changes of intracellular metabolism (mitochondrial activity, protein synthesis, nucleic acids synthesis, formation of blastic cells and cellular proliferation). […] Variety of in vitro assays was developed to measure proliferative response of lymphocytes. The most commonly used is ^3H-thymidine incorporation method.
# During cell proliferation, DNA has to be replicated before the cell is divided into two daughter cells. This close association between cell doublings and DNA synthesis is very attractive for assessing cell proliferation. If labelled DNA precursors are added to the cell culture, cells that are about to divide incorporate the labelled nucleotide into their DNA. Traditionally, those assays usually involve the use of radiolabelled nucleosides, particularly tritiated thymidine ([^3H]-TdR). The amount of [^3H]-TdR incorporated into the cellular DNA is quantified by liquid scintillation counting.
# Human heparinized peripheral blood was obtained from healthy volunteers by cubital vein punction. The blood was diluted in PBS (1:3) and mononuclear cells were separated by centrifugation in Ficoll-Hypaque density gradient (Pharmacia, 1.077 g/ml) at 2200 rpm for 30 minutes. Following centrifugation, lymphocytes were washed in PBS and resuspended in cell culture medium (RMPI 1640, 2 mM glutamine, 100 U/ml penicillin, 100 μg/ml streptomycin, 10% fetal calf serum and sodium bicarbonate).
# The cells were diluted at target density of 1,100,000 cells/ml were added by pipette (180 μl) into 96/well microtiter plates. Four-fold dilutions of the intended test concentration were added at time zero in 20 μl aliquots to the microtiter plate wells. Usually, test compound was evaluated at six 4-fold dilutions. In routine testing, the highest well concentration was 266.7 μM. All drug concentrations were examined in duplicates. All wells with exception of unstimulated controls were activated with 50 μl of concanavalin A (25 μg/ml). Incubations of cells with test compounds lasted for 72 hours at 37° C., in 5% CO2 atmosphere and 100% humidity. At the end of incubation period, the cells were assayed by using the [^3H]-TdR:
# Cell cultures were incubated with 0.5 μCi (20 μl of stock solution 500 μCi/ml) per well for 6 hours at 37° C. and 5% CO2. The automated cell harvester was used to lyse cells in water and adsorb the DNA onto glass-fiber filters in the format of microtiter plate. The DNA incorporated [^3H]-TdR was retained on the filter while unincorporated material passes through. The filters were dried at room temperature overnight, sealed into a sample bag with 10-12 ml of scintillant. The amount of [^3H]-TdR present in each filter (in cpm) was determined by scintillation counting in a Betaplate liquid scintillation counter. The effective dose of immunosuppressant (ED) was calculated using the following equation: ED=(CCPMdrug exposed well/mean CCPMcontrol wells)×100%. The ED50 value, the drug concentration inhibiting proliferation of 50% of lymphocytes, was calculated from the obtained dose response curves.
# [1] = system: human diploid fibroblasts (HCA cells); test: Senescence, beta-galactosidase staining of human diploid fibroblasts; format: cell-based; settings: for SENESCENT CELLS (%) HCA25: passage 25; for SENESCENT CELLS (%) HCA45: passage 45; for SENESCENT CELLS (%) HCA80: passage 80
# Description: In this example, human diploid fibroblasts (HCA cells of various passage levels: passage 25—designated HCA25; passage 45—designated HCA45; passage 80—designated HCA80) were stained for β-galactosidase activity. The medium used for cell cultivation was removed, the cells were washed twice in […], and fixed in 2-3 ml of fixing solution comprised of a 2% formaldehyde and 0.2% glutaraldehyde in PBS. The cells were incubated at room temperature for 5 minutes, then washed twice with PBS. The cells were subsequently incubated at 37° C. (without CO2) for 1 to 16 hours in 2-3 ml of a solution comprising potassium ferricyanide (5 mM), potassium ferrocyanide (5 mM), MgCl2 (2 mM), X-gal (5-bromo-4-chloro-3-indolyl-β-D-galactopyranoside) (1 mg/ml), in citric/phosphate buffer, pH 6.0). […] In this experiment, senescent cells, but not other cells were stained blue due to the action of β-galactosidase on the substrate (FIG. 4).
# K-562 = test: Calcein AM cytotoxicity, K-562; format: cell-based; settings: Homo sapiens, K562, 72 h, read-out: IC 50, K-562
# Text: (§1) One of the parameters used, as the basis for cytotoxicity assays, is the metabolic activity of viable cells. For example, a microtiter assay, which uses the Calcein AM, is now widely used to quantitate cell proliferation and cytotoxicity. For instance, this assay is used in drug screening programs and in chemosensitivity testing. Because only metabolically active cells cleave Calcein AM, these assays detect viable cells exclusively. The quantity of reduced Calcein AM corresponds to the number of vital cells in the culture.
# (§2) The cells were maintained in Nunc/Corning 80 cm^2 plastic tissue culture flasks and cultured in cell culture medium (DMEM with 5 g/l glucose, 2 mM glutamine, 100 U/ml penicillin, 100 μg/ml streptomycin, 10% fetal calf serum and sodium bicarbonate).
# (§3) The cell suspensions that were prepared and diluted according to the particular cell type and the expected target cell density (2.500-30.000 cells per well based on cell growth characteristics) were added by pipette (80 μl) into 96/well microtiter plates. Inoculates were allowed a pre-incubation period of 24 hours at 37° C. and 5% CO2 for stabilisation. Four-fold dilutions of the intended test concentration were added at time zero in 20 μl aliquots to the microtiter plate wells. Usually, test compound was evaluated at six 4-fold dilutions. […] All drug concentrations were examined in duplicates. Incubations of cells with the test compounds lasted for 72 hours at 37° C., in 5% CO2 atmosphere and 100% humidity. At the end of incubation period, the cells were assayed by using the Calcein AM. Ten microliters of the stock solution were pipetted into each well and incubated further for 1 hours. Fluorescence (FD) was measured with the Labsystem FIA Reader Fluoroscan Ascent (UK).
# [2] = system: breast carcinoma cell line MCF-7; test: Calcein AM cytotoxicity, MCF7; format: cell-based, human; settings: Homo sapiens, MCF7, 72 h, read-out: IC 50, MCF7
# Text: as §1, §2, §3
# B16-F0 melanoma = test: Calcein AM cytotoxicity, B16-F0; format: cell-based; settings: Mus musculus, B16F0, 72 h, read-out: IC 50, B16-F0
# Text: as §1
# (§4) Human T-lymphoblastic leukemia cell line CEM; promyelocytic HL-60 and monocytic U937 leukemias; breast carcinoma cell lines MCF-7, BT549, MDA-MB-231; glioblastoma U87MG cells; cervical carcinoma cells HELA; sarcoma cells U2OS and Saos2; hepatocellular carcinoma HepG2; mouse fibroblasts NIH3T3; mouse immortalized bone marrow macrophages B2.4 and B10A.4; P388D1 and L1210 leukemia; B16 and B16F10 melanomas were used for routine screening of compounds. The cells were maintained in Nunc/Corning 80 cm^2 plastic tissue culture flasks and cultured in cell culture medium (DMEM with 5 g/l glucose, 2 mM glutamine, 100 U/ml penicillin, 100 μg/ml streptomycin, 10% fetal calf serum and sodium bicarbonate).
# (§5) The cell suspensions that were prepared and diluted according to the particular cell type and the expected target cell density (2.500-30.000 cells per well based on cell growth characteristics) were added by pipette (80 μl) into 96/well microtiter plates. Inoculates were allowed a pre-incubation period of 24 hours at 37° C. and 5% CO2 for stabilisation. Four-fold dilutions of the intended test concentration were added at time zero in 20 μl aliquots to the microtiter plate wells. Usually, test compound was evaluated at six 4-fold dilutions. In routine testing, the highest well concentration was […], but it can be the matter of change dependent on the agent. All drug concentrations were examined in duplicates. Incubations of cells with the test compounds lasted for 72 hours at 37° C., in 5% CO2 atmosphere and 100% humidity. At the end of incubation period, the cells were assayed by using the Calcein AM. Ten microliters of the stock solution were pipetted into each well and incubated further for 1 hours. Fluorescence (FD) was measured with the Labsystem FIA Reader Fluoroscan Ascent (UK). The tumour cell survival (GI50) was calculated using the following equitation: TCS═(FDdrug exposed well/mean FDcontrol wells)×100%. The GI50 value, the drug concentration lethal to 50% of the tumour cells, was calculated from the obtained dose response curves (FIG. 1).
# [3] = system: T-lymphoblastic leukemia cell line CEM; test: Calcein AM cytotoxicity, CEM; format: cell-based, human
# Text: as §1, §2, §3
# [4] = system: promyelocytic HL-60 leukemia; test: Calcein AM cytotoxicity, HL60; format: cell-based, human; settings: Homo sapiens, HL-60, 72 h, read-out: IC 50, HL60
# Text: as §1, §2, §3
# [5] = system: Triticum aestivum cv. Hereward leaf tips; test: Retention of chlorophyll in excised wheat leaf tips; format: in vivo; settings: chlorophyll retention at the concentration with highest activity
# Method in brief: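 Tips of first leaves from 7-day wheat (cv. Hereward) seedlings kept on compound solutions (10^−8 to 10^−4 M, from DMSO stock) for 96 h in the dark at 25 °C. Chlorophyll extracted in 80% ethanol at 80 °C and read at 665 nm. Activity at the best concentration expressed relative to 10^−4 M BAP (100%), five replicates.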
# [6] = system: tobacco callus Nicotiana tabacum L. cv. Wisconsin 38; test: Cytokinin-dependent tobacco callus growth; format: cell-based; settings: fresh callus weight at the concentration with highest activity
# [7] = system: Amaranthus caudatus cotyledon/hypocotyl explants; test: Amaranthus bioassay, betacyanin content; format: in vivo; settings: betacyanin content at the concentration with highest activity
# HOS = test: Calcein AM cytotoxicity, HOS; format: cell-based; settings: Homo sapiens, HOS, 72 h
# Text: as §1, §4, §5
SMILES,EC50 (Human lymphocytes) [µM],SENESCENT CELLS (%) HCA25 [1] [%],SENESCENT CELLS (%) HCA45 [1] [%],SENESCENT CELLS (%) HCA80 [1] [%],IC50 (B16-F0 melanoma) [µM],Activity (%) [10^−4 mol · l^−1 BAP = 100%] [5],Activity (%) [10^−4 mol · l^−1 BAP = 100%] [6],activity (%) [10^−5 mol · l^−1 BAP = 100%] [7],also measured
"COc1ccc(CNc2ncnc3nc[nH]c23)c(O)c1 [2-hydroxy-4-methoxybenzylamino, 6-(2-hydroxy-4-methoxybenzylamino)purine]",1.8,–,–,–,–,–,–,–,–
"Nc1cc(Nc2ncnc3nc[nH]c23)ccc1Cl [3-amino-4-chloroanilino, 6-(3-amino-4-chloroanilino)purine]",8.3,4,6,22,–,–,–,–,–
"Nc1ccc(Nc2ncnc3nc[nH]c23)cc1Cl [3-chloro-4-aminoanilino, 6-(3-chloro-4-aminoanilino)purine]",12,5,5,24,–,–,–,–,–
"Nc1cc(Cl)cc(Nc2ncnc3nc[nH]c23)c1 [3-chloro-5-aminoanilino, 6-(3-chloro-5-aminoanilino)purine]",12.4,3,6,24,–,–,–,–,–
"Clc1cccc(Nc2ncnc3nc[nH]c23)c1 [3-chloroanilino, 6-(3-chloroanilino)purine]",7.2,4,5,25,–,–,–,–,–
"Brc1ccc(Nc2ncnc3nc[nH]c23)cc1 [4-bromoanilino, 6-(4-bromoanilino)purine]",4.7,5,3,25,–,–,–,–,–
"Clc1ccc(Nc2ncnc3nc[nH]c23)cc1 [4-chloroanilino, 6-(4-chloroanilino)purine]",6.2,5,5,26,–,–,–,–,–
Fc1ccc(CNc2ncnc3nc[nH]c23)cc1Cl [6-(3-chloro-4-fluorobenzylamino)purine],–,–,–,–,> 167,141 (±20) %,90 (±1) %,91 (±7) %,"IC50 (K-562): > 167 µM; IC50 [2]: > 167 µM; IC50 ([3]; 72 hours, listed as 3Cl4F BAP): 95.8 µM; IC50 ([3]; Homo sapiens, 72 h): 135 µM; IC50 [4]: > 167 µM"
Cc1cccc(CNc2ncnc3nc[nH]c23)c1 [6-(3-methylbenzylamino)purine],–,–,–,–,164,111 (±16) %,79 (±5) %,84 (±14) %,"IC50 (K-562): > 167 µM; IC50 [2]: 102 µM; IC50 ([3]; Homo sapiens, 72 h): > 167 µM; IC50 [4]: > 167 µM"
COc1ccc(CNc2ncnc3nc[nH]c23)cc1 [6-(4-methoxybenzylamino)purine],–,–,–,–,84.7,79 (±6) %,39 (±17) %,23 (±2) %,IC50 (HOS): > 167 µM
